Data set [1] has as its system E. coli. The data set is classed as cell-based, Escherichia coli. As to conditions: 24 h incubation, MHB, triplicate. The text has this: (§1) A. baumannii strain (CECT 452, Valencia, Spain, ATCC 15308, Manassas, VA, USA) and Pseudomonas aeruginosa (P. aeruginosa) strain (CECT 4122, Valencia, Spain, ATCC 15692, Manassas, VA, USA) were from the Colección Española de Cultivos Tipo (CECT, Valencia, Spain). The Escherichia coli (E. coli) BL21 (DE3) strain was from Novagen (Darmstadt, Germany). MRC-5 cells were from the American Type Culture Collection (ATCC, Manassas, VA, USA) and HEK293T cell line was kindly provided by Dr. Raquel Pequerul (UAB, Barcelona, Spain).
(§2) The MIC is defined as the lowest concentration of one reagent to prevent visible growth of bacteria. The MIC determination was followed by the protocol described previously. Briefly, bacteria in exponential growth were used to prepare a suspension in MHB with the approximate number of 5 × 10^5 CFU/mL. Next, an aliquot of 90 μL of bacteria suspension was added into each well of the 96-well polypropylene plate. Immediately, 10 μL of peptide diluted by 0.01% acetic acid was added to the corresponding well to have a final concentration ranging from 20 to 0.16 μM. The plate was incubated for 24 h at 37 °C, 100 rpm. The presence or absence of bacterial growth was visually inspected and confirmed by reading OD600 with Tecan Microplate Reader Spark®. Each test was performed in triplicate.

The conditions of data set [2]: cited from earlier work.
For data set [3], the system named is P. aeruginosa. The data set is classed as cell-based, Pseudomonas aeruginosa. The settings on record: 24 h incubation, MHB, triplicate.
From the text: as §1, §2

For data set [4], the system named is MRC-5 cells. Briefly: Cytotoxicity assay (MTT). As to conditions: MTT, Mean ± SE, N.D. = no reduction in cell viability detected at the highest concentration. As to the method:
(§3) Cytotoxicity was measured for the MRC-5 and HEK293T cell lines by MTT assay. Cells were grown in 5% CO2 at 37 °C with MRC-5 cell line maintained in MEMα and HEK293T in DMEM/F-12 media, both of which were supplemented with 10% FBS. The cells were passaged in 25 cm^2 or 75 cm^2 flasks to prepare 96-well plates with 3 × 10^4 cells/well, which were incubated overnight. Next, serial dilutions of ECPep-D and ECPep-2D-Orn were added to have a final concentration ranging from 100 to 0.78 μM (375 μg/mL to 3 μg/mL) and colistin was added at final concentrations ranging from 300 to 2.34 μM (380 μg/mL to 3 μg/mL) in corresponding wells. After incubation to the specified time, the medium of the plate was replaced by fresh medium containing 0.5 mg/mL MTT solution and the mixture was incubated for 2.5 h in 5% CO2 at 37 °C. The medium was then removed, and formazan was dissolved by adding DMSO. The optical density (OD) was recorded by using a Victor^3 plate reader (PerkinElmer, Waltham, MA, USA) set at 540 nm and 620 nm as a reference. Each test was performed in triplicate.

Data set [5] has as its system A. baumannii. Briefly: Efficacy assay in murine acute systemic infection model (survival). The data set is classed as in vivo, Balb/c mice. The settings on record: 10^8 CFU/kg A. baumannii, colistin 15 mg/kg.
Description: An aliquot from an A. baumannii stock stored in 15% glycerol at −80 °C was taken to culture in 3 mL LB overnight at 250 rpm, 37 °C. Next, OD600 reading of A. baumannii overnight culture was performed to adjust to the number of bacteria required (CFU/mL) and then diluted by half with the same volume of 10% porcine mucin, to obtain a solution of selected CFU/mL in 5% mucin for mice inoculation. […] The inoculating volume was decided based on the body weight of each animal (10 mL/kg).
When the sum of the scores reached a maximum value of 7, the mice were euthanized following ethical principles. The infection was first tested at a concentration of 10^9 CFU/kg and then set at 10^7 CFU/kg and 10^8 CFU/kg. […] We also performed an extra assay where mice infected by 10^8 CFU/kg of A. baumannii were treated with colistin, used as a positive control.
To avoid bias, the reagents for these four groups were given to technicians in advance and renumbered randomly, designated as A, B, C, D, respectively. […]
The clinical symptoms were assessed through a scoring system, which contains 9 items, including changes of body weight, behavior, breathing, skin, hair, eyes and gastrointestinal status (see full list at Table S2). […] During the study, when an animal obtained a score of 3 in any of the parameters assessed with a maximum score of 3, euthanasia was carried out to apply the endpoint criteria. […]
Data set [6] relates to LPS. Briefly: LPS in serum of infected mice by ELISA. The data set is classed as in vivo, Balb/c mice. As to conditions: second efficacy assay, colistin 15 mg/kg versus ECPep-D 20 mg/kg, p < 0.1. As for the experimental part: In the second efficacy study, the blood of animals that either died for severe clinical symptoms or were euthanized at the end of the assay, were collected for testing TNF-α and LPS levels by ELISA. In order to check the levels of TNF-α and free LPS, only serum was analyzed, after discarding blood cells by centrifugation. The blood from mice was centrifuged at 3200 rpm for 30 min and the supernatants were collected carefully to ensure that there were no sediments left. Mouse ELISA kits for TNF-α and LPS were used.
According to the description of the manufacturer, LPS level determination is based on the principle of double antibody sandwich technology, where the microplates pre-coated with specific antibodies were used. Following addition of serum samples to the wells, the HRP-Conjugate reagent was added to form an immune complex. After incubation and washing, the unbound enzyme was removed. Then, chromogen substrates were added successively and optical density was recorded using microplate reader set at 450 nm. Sample readings were corrected using the baseline corresponding to serum of mice neither infected nor treated. A calibration standard curve was prepared and final calculated values were positively correlated with the concentration of LPS. Two replicates were performed according to the protocols for the representation of the standard curve and the sample testing.
On the technique in general: In an ELISA, binding on a coated surface is turned into a signal by an enzyme label.

In data set [7] the test system is O-LPS (LPS from E. coli O111:B4). Nature of the data set: LPS affinity assay (BODIPY TR cadaverine displacement). The data set is classed as binding. As to conditions: 50% of BC probe bound to LPS displaced; Mean ± SE. An excerpt: (§4) Lipopolysaccharides (LPS) from E. coli O111:B4 (O-LPS), EH100 (Ra mutant), and J5 (Rc mutant), porcine mucin, Mueller Hinton broth (MHB) and Thiazolyl Blue Tetrazolium […] (MTT) were purchased at Sigma-Aldrich (Saint Louis, MO, USA). Colistin sulphate and Dimethyl sulfoxide (DMSO) were from Apollo Scientific (Stockport, UK). BODIPY® TR cadaverine (BC) were from Molecular Probes (Eugene, OR, USA). Mouse TNF-α ELISA Kit (MBS175787, MyBioSource, San Diego, CA, USA) and Mouse LPS ELISA Kit (MBS7700668, MyBioSource, San Diego, CA, USA) were from bioNova científica s.l. (Madrid, Spain) Human TNF-α ELISA set was from BD Biosciences (555212, BD OptEIA^TM, San Jose, CA, USA). Aspidasept® (pep19-2.5) is an antibacterial/anti-inflammatory peptide drug ([…], with C-terminal amide).
(§5) The LPS affinity was assessed using the fluorescent probe BC by an adaptation of the displacement assay reported. Peptides and colistin were serially diluted in a 96-well fluorescence plate from 20 to 0.16 μM in Tris/HCl 50 mM PH 7.4. Next, LPS and BC diluted in the same buffer were added to have the final concentration of 50 μg/mL and 5 μM, respectively. Fluorescence measurements were performed on Tecan Microplate Reader Spark® at 580 nm of excitation wavelength and 620 nm of the emission wavelength at 5 nm for optimal gain. Each test was performed in triplicate.

For data set [8], the system named is LPSRc (LPS from E. coli J5, Rc mutant). Described as above. Format: binding. The settings on record: 50% of BC probe bound to LPS displaced; Mean ± SE.
From the text: as §4, §5

Data set [9] relates to LPSRa (LPS from E. coli EH100, Ra mutant). The data set is described as above. The data set is classed as binding. As to conditions: 50% of BC probe bound to LPS displaced; Mean ± SE.
From the text: as §4, §5

The subject of data set [10] is HEK293T cells. As for the experimental part:
as §3

Data set [11] deals with A. baumannii. Format: cell-based, Acinetobacter baumannii. The settings on record: 24 h incubation, MHB, triplicate.
From the text: as §1, §2

Values joined by “and” are separate entries in the source; they are usually repeats but may differ in a detail not shown here. Identical values can stand only once.

Colistin sulphate [reference compound]: the “MIC E. coli” value in data set [1] is 5 μM and 6.34 μg/mL. In addition, the “LD50 by intraperitoneal administration” value in data set [2] (Swiss albino mice, single injection) is 20 to 30 mg/kg. Further, in data set [2] (mice receiving 32 mg/(kg × day), after three doses), the deaths from neurotoxicity entry is “three of twelve mice died”. The “LD50 for the intraperitoneal route” value in data set [2] (mice, ref U.S. National Library of Medicine ChemIDplus 1264-72-8) was 21.8 mg/kg. In addition, in data set [3], the “MIC P. aeruginosa” value was 0.31 μM and 0.40 μg/mL. In addition, the “LD50 (MRC-5) 24 h” value in data set [4] (24 h) was >300 μM and >380.26 μg/mL. Further, in [4] (48 h), the “LD50 (MRC-5) 48 h” value was >300 μM and >380.26 μg/mL. Besides, the “survival rate, first efficacy assay” value in data set [5] (i.p. once every 24 h for 3 days from 2 h post inoculum, peptides 10 mg/kg, 3 days) worked out at 100%. In addition, the “survival rate after 3 days (72 h), second efficacy assay” value in data set [5] (single i.p. dose 2 h post inoculum, peptides 20 mg/kg, 72 h) turned out to be 100%. In addition, the “concentration of LPS in serum, Day 3” value in data set [6] was “slightly increased”. In addition, in data set [7], a half-maximal effect (EC50) was put at 7.87 ± 0.33 µM and the “EC50 O-LPS” value was found to be 9.97 ± 0.42 mg/L. In addition, in data set [8], a half-maximal effect (EC50) was put at 19.2 ± 0.34 µM and the “EC50 LPSRc” value is 24.31 ± 0.42 mg/L. Besides, in [9], the response was half-maximal at 13.1 ± 0.4 µM (EC50) and the “EC50 LPSRa” value came to 16.63 ± 0.50 mg/L. Besides, the “IC50 (HEK293T) 48h” value in [10] (MTT, Mean ± SE) was greater than 380.26 mg/L. The IC50 in [10] (read-out: IC50 (HEK293T) 48h, MTT, Mean ± SE) was greater than 300 µM. In data set [11], the “MIC A. baumannii” value was 0.31 μM and 0.40 μg/mL.

One may read the EC50 as the midpoint of the concentration-response curve. Usually IC50 stands for the concentration needed to halve the response being measured.

These data come from article PMC8962335, “In Vivo Evaluation of ECP Peptide Analogues for the Treatment of Acinetobacter baumannii Infection” (Biomedicines, 2022).
